Measurements reported in PubChem BioAssay AID1963853 (Molecular Pharmacology Branch, DTP, NCI, 2024).

Tested on: 266295-075-R-J1-PDC spheroid viability
Test: Anticancer human tumor 266295-075-R-J1-PDC patient-derived head and neck squamous carcinoma cell line growth inhibition [POLQ]
Details: spheroids with HUVEC and MSC; for IC50: curve of first compound; for viability, T/C: stronger effect = lower value
Method: Multicellular complex tumor spheroid response to Polymerase (POL) inhibitors (novobiocin, ART-558, RP6685) in combination with a variety of drugs and investigational agents in selected tumor cell lines
The POL inhibitors (novobiocin, ART-558, and RP6685) were evaluated both individually and in combination with standard of care and investigational anticancer small molecules within a complex spheroid model of solid tumors. . Complex spheroids include a stromal component modeled by human endothelial cells (HUVEC) and fibroblasts modeled by human mesenchymal stem cells (MSCs). The concentration ranges selected for each drug and investigational agent were based upon clinically achievable concentrations if the clinical Cmax of the agent was known.
Compounds. The drugs and investigational agents: novobiocin (NSC847541), ART-558 (NSC835418), RP-6685 (NSC848927), peposertib (NSC802822), ceralasertib (NSC780249), elimusertib (NSC800525), camonsertib (NSC841442), AZD-1390 (NSC803789), olaparib (NSC753686), talazoparib (NSC767125), rucaparib (NSC756644), sotorasib (NSC818433), MRTX-1133 (NSC836407), SN-38 (NSC673596), topotecan (NSC609699), epotoside (NSC141540), doxorubicin (NSC123127), gemcitabine (NSC613327), 5-fluorouracil (NSC19893), paclitaxel (NSC125973), vemurafenib (NSC761431), MSA-2 (NSC828583), SN-011 (NSC837082), adavosertib (NSC754352), prexasertib (NSC758257), carboplatin (NSC241240) and oxaliplatin (NSC266046), were obtained from the National Cancer Institute (NCI) Developmental Therapeutics Program Chemical Repository (21). The FDA-approved anticancer drug set is available from the Developmental Therapeutics Program at https://dtp.cancer.gov/organization/dscb/obtaining/. […] The stock solutions were prepared in dimethyl sulfoxide (DMSO, Sigma-Aldrich, St. Louis, MO, cat. D2650), except for the platinum compounds which were prepared in saline (Quality Biological, Gaithersburg, MD, cat. 114-055-101), at 800-fold the tested concentration and stored at -70 degrees C prior to their use. All drugs and investigational agents were tested over a range starting from a high concentration at or near the clinical Cmax and decreasing in half-log increments. If the clinical Cmax for an agent had not been determined, the highest concentration tested was 10 microM, except for SN-38, which was tested at a high concentration of 1 microM.
Cell Culture. All cells were maintained in an incubator at 37 degrees C and 5% CO2 with 95% humidity. The PDC lines were cultured according to standard operating procedures established by the NCI PDMR (https://pdmr.cancer.gov). Table 3 of the manuscript, lists the cell lines along with the number of the three cell types plated to form the mct-spheroids and media for tumor cell growth. After thawing, all PDC lines, except 997537-175-T-J1-PDC and 415267-285-R-J2-PDC, were cultured in Matrigel-coated flasks prepared with a working solution of 1X Ham's F-12 nutrient mix, without supplementation (Thermo Fisher Scientific, cat. 11765054), 100 U/mL penicillin-streptomycin (Thermo Fisher Scientific, cat. 15140122), and 2.5% Matrigel (Corning Inc., Corning, NY, cat. 354248) for the first three passages. The two PDC lines 997537-175-T-J1-PDC and 415267-285-R-J2-PDC were cultured on uncoated flasks. The 857933-349-R-J2-PDC line was cultured in 6C/Colon 1B media containing advanced DMEM/F-12 (Thermo Fisher Scientific, cat. 12634028), 10 mM HEPES (Thermo Fisher Scientific, cat. 15630080), 1X GlutaMAX supplement (Thermo Fisher Scientific, cat. 35050061), 0.1 mg/mL primocin (InvivoGen, San Diego, CA, cat. ant-pm-2), 10% defined fetal bovine serum, heat inactivated (HyClone Laboratories Inc., Logan, UT, cat. SH30070.03HI), 50% L-WRN conditioned media (ATCC, cat. CRL-3276), 1.25 mM N-Acetyl-L-cysteine (Sigma-Aldrich, cat. A9165), 10 mM nicotinamide (Sigma-Aldrich, cat. N0636), 1X B-27 supplement (Thermo Fisher Scientific, cat. 17504044), 1X N-2 supplement (Thermo Fisher Scientific, cat. […]
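Also: spheroids exposed to compounds for seven days before readout.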

`CC(=O)O[C@H]1C(=O)[C@@]2(C)[C@H]([C@H](OC(=O)c3ccccc3)[C@]3(O)C[C@H](OC(=O)[C@H](O)[C@@H](NC(=O)c4ccccc4)c4ccccc4)C(C)=C1C3(C)C)[C@]1(OC(C)=O)CO[C@@H]1C[C@@H]2O` + COC1C(OC(N)=O)C(O)C(Oc2ccc3c(O)c(NC(=O)c4ccc(O)c(CC=C(C)C)c4)c(=O)oc3c2C)OC1(C)C was tested, and the IC50 (second compound 0.0316 µM) was over 3 µM, the IC50 (second compound 0.1 µM) was over 3 µM and the IC50 (second compound 0.316 µM) was over 3 µM. For the same compound, the IC50 (second compound 1 µM) was over 3 µM, the IC50 (second compound 3.16 µM) was over 3 µM and the IC50 (second compound 10 µM) was over 3 µM. The viability, T/C (second compound 0.0316 µM, first compound 0.00949 µM) was 79.5%, the viability, T/C (second compound 0.0316 µM, first compound 0.03 µM) was 69.1% and the viability, T/C (second compound 0.0316 µM, first compound 0.0949 µM) was 63.3%. It also gave a viability, T/C (second compound 0.0316 µM, first compound 0.3 µM) of 86.2%, a viability, T/C (second compound 0.0316 µM, first compound 0.949 µM) of 75.6% and a viability, T/C (second compound 0.0316 µM, first compound 3 µM) of 71.3%. The viability, T/C (second compound 0.1 µM, first compound 0.00949 µM) was 92.3%, the viability, T/C (second compound 0.1 µM, first compound 0.03 µM) was 79% and the viability, T/C (second compound 0.1 µM, first compound 0.0949 µM) was 61.2%. For the same compound, the viability, T/C (second compound 0.1 µM, first compound 0.3 µM) was 73.2%, the viability, T/C (second compound 0.1 µM, first compound 0.949 µM) was 78.1% and the viability, T/C (second compound 0.1 µM, first compound 3 µM) was 69%. For the same compound, the viability, T/C (second compound 0.316 µM, first compound 0.00949 µM) was 93.6%, the viability, T/C (second compound 0.316 µM, first compound 0.03 µM) was 73.4% and the viability, T/C (second compound 0.316 µM, first compound 0.0949 µM) was 66.5%. For the same compound, the viability, T/C (second compound 0.316 µM, first compound 0.3 µM) was 67.4%, the viability, T/C (second compound 0.316 µM, first compound 0.949 µM) was 72.1% and the viability, T/C (second compound 0.316 µM, first compound 3 µM) was 81.2%. The viability, T/C (second compound 1 µM, first compound 0.00949 µM) was 76.9%, the viability, T/C (second compound 1 µM, first compound 0.03 µM) was 70% and the viability, T/C (second compound 1 µM, first compound 0.0949 µM) was 67.8%. The viability, T/C (second compound 1 µM, first compound 0.3 µM) was 80.7%, the viability, T/C (second compound 1 µM, first compound 0.949 µM) was 77.3% and the viability, T/C (second compound 1 µM, first compound 3 µM) was 65%. It also gave a viability, T/C (second compound 3.16 µM, first compound 0.00949 µM) of 81.9%, a viability, T/C (second compound 3.16 µM, first compound 0.03 µM) of 83.6% and a viability, T/C (second compound 3.16 µM, first compound 0.0949 µM) of 62.5%. It also gave a viability, T/C (second compound 3.16 µM, first compound 0.3 µM) of 75.5%, a viability, T/C (second compound 3.16 µM, first compound 0.949 µM) of 71.3% and a viability, T/C (second compound 3.16 µM, first compound 3 µM) of 75.2%. It also gave a viability, T/C (second compound 10 µM, first compound 0.00949 µM) of 85.6%, a viability, T/C (second compound 10 µM, first compound 0.03 µM) of 72.3% and a viability, T/C (second compound 10 µM, first compound 0.0949 µM) of 62.8%. The viability, T/C (second compound 10 µM, first compound 0.3 µM) was 60.5%, the viability, T/C (second compound 10 µM, first compound 0.949 µM) was 75.5% and the viability, T/C (second compound 10 µM, first compound 3 µM) was 74.7%.
